Measured values as given in patent US10752584B2 (EMORY UNIVERSITY, priority 2016, dated 2020).
Like-named read-outs stand apart in the source and are kept apart here.

What was measured:
Format in all cases: cell-based
[1] = Cellular toxicity assay in HepG2 cells; conditions: human, read-out: Cytotoxicity
Description: (§1) The toxicity of the compounds was assessed in Vero, human PBM, CEM (human lymphoblastoid), MT-2, and HepG2 cells, as described previously (see Schinazi R. F., Sommadossi J.-P., Saalmann V., Cannon D. L., Xie M.-Y., Hart G. C., Smith G. A. & Hahn E. F. Antimicrob. Agents Chemother. 1990, 34, 1061-67). Cycloheximide was included as positive cytotoxic control, and untreated cells exposed to solvent were included as negative controls. The cytotoxicity IC50 was obtained from the concentration-response curve using the median effective method described previously (see Chou T.-C. & Talalay P. Adv. Enzyme Regul. 1984, 22, 27-55; Belen'kii M. S. & Schinazi R. F. Antiviral Res. 1994, 25, 1-11).

[2] = Cellular toxicity assay in CEM cells; conditions: human, read-out: Cytotoxicity
Description: as §1

[3] = Cellular toxicity assay in Vero cells; conditions: African green monkey, read-out: Cytotoxicity
Description: as §1

wild type HBV = assay: Anti-HBV assay in AD-38 cell line; conditions: Hepatitis B virus; for EC50: read-out: Anti-HBV activity EC50; for EC90: read-out: Anti-HBV activity EC90
Description: The anti-HBV activity of the compounds was determined by treating the AD-38 cell line carrying wild type HBV under the control of tetracycline (see Ladner S. K., Otto M. J., Barker C. S., Zaifert K., Wang G. H., Guo J. T., Seeger C. & King R. W. Antimicrob. Agents Chemother. 1997, 41, 1715-20). Removal of tetracycline from the medium [Tet (−)] results in the production of HBV. The levels of HBV in the culture supernatant fluids from cells treated with the compounds were compared with that of the untreated controls. Control cultures with tetracycline [Tet (+)] were also maintained to determine the basal levels of HBV expression. 3TC was included as positive control.
The median effective concentrations (EC50) ranges of several of the compounds described herein against HBV are shown in Table 3: […]

[4] = Cellular toxicity assay in human PBM cells; conditions: human, read-out: Cytotoxicity
Description: as §1

[5] = AD-38 cells, HBV in culture supernatant

Row | SMILES | CC50 [1] | CC50 ([2]; CEM lymphoblastoid cells) | CC50 [3] | EC50 (wild type HBV; [5]) | EC90 (wild type HBV; [5]) | CC50 ([4]; human PBM cells) | CC50 [2] | EC50 (wild type HBV) | EC90 (wild type HBV) | CC50 [4]
1 | C#CCNC(=O)C(=O)c1c(C)c(C(=O)Nc2ccc(F)c(C#N)c2)n(C)c1C [Compound 7b, N-(3-cyano-4-fluorophenyl)-1,3,5-trimethyl-4-(2-oxo-2-(prop-2-yn-1-ylamino)acetyl)-1H-pyrrole-2-carboxamide] | > 100 µM | > 100 µM | > 100 µM | 0.01 to 0.09 µM | 0.1 to 0.9 µM | > 100 µM |  |  |  | 
2 | C=CCn1cc(CNC(=O)C(=O)c2c(C)c(C(=O)Nc3ccc(F)c(F)c3)n(C)c2C)nn1 [Compound 8] | 98.6 µM |  | > 100 µM |  |  |  | 45.4 µM | 0.001 to 0.009 µM | 0.01 to 0.09 µM | 60.5 µM
3 | C#CCNS(=O)(=O)c1cc(C(=O)Nc2ccc(F)c(F)c2)n(C)c1 [Compound 17, N-(3,4-Difluorophenyl)-1-methyl-4-(N-(prop-2-yn-1-yl)sulfamoyl)-1H-pyrrole-2-carboxamide] |  | 53 µM | 41 µM | 0.1 to 0.9 µM | 1 to 9 µM | > 100 µM |  |  |  | 
4 | C=CCNC(=O)C(=O)c1cc(C(=O)Nc2ccc(F)c(F)c2)n(C)c1 [Compound 25, 4-(2-(allylamino)-2-oxoacetyl)-N-(3,4-difluorophenyl)-1-methyl-1H-pyrrole-2-carboxamide] | > 100 µM | > 100 µM | 68.1 µM | 0.01 to 0.09 µM | 1 to 9 µM | > 100 µM |  |  |  | 
5 | Cn1cc(C(=O)C(=O)Nc2nccs2)cc1C(=O)Nc1ccc(F)c(F)c1 [Compound 26, N-(3,4-difluorophenyl)-1-methyl-4-(2-oxo-2-(thiazol-2-ylamino)acetyl)-1H-pyrrole-2-carboxamide] | > 100 µM | > 100 µM | 31.2 µM | 0.1 to 0.9 µM | 1 to 9 µM | > 100 µM |  |  |  | 
6 | Cn1cc(C(=O)C(=O)NOC2CCCC2)cc1C(=O)Nc1ccc(F)c(F)c1 [Compound 27, 4-(2-((cyclopentyloxy)amino)-2-oxoacetyl)-N-(3,4-difluorophenyl)-1-methyl-1H-pyrrole-2-carboxamide] | > 100 µM | 37.9 µM | 80.1 µM | 0.01 to 0.09 µM | 1 to 9 µM |  |  |  |  | 
7 | Cn1cc(C(=O)C(=O)Nc2ccccc2)cc1C(=O)Nc1ccc(F)c(F)c1 [Compound 28, N-(3,4-difluorophenyl)-1-methyl-4-(2-oxo-2-(phenylamino)acetyl)-1H-pyrrole-2-carboxamide] | > 100 µM | > 100 µM | 13.4 µM | 0.01 to 0.09 µM | 1 to 9 µM |  |  |  |  | 
8 | Cn1cc(C(=O)C(=O)NCC#N)cc1C(=O)Nc1ccc(F)c(F)c1 [Compound 30, 4-(2-((cyanomethyl)amino)-2-oxoacetyl)-N-(3,4-difluorophenyl)-1-methyl-1H-pyrrole-2-carboxamide] | > 100 µM | > 100 µM | 91.4 µM | 1 to 9 µM | 1 to 9 µM |  |  |  |  | 
9 | Cn1cc(C(=O)C(=O)N2CCOCC2)cc1C(=O)Nc1ccc(F)c(F)c1 [Compound 31, N-(3,4-difluorophenyl)-1-methyl-4-(2-morpholino-2-oxoacetyl)-1H-pyrrole-2-carboxamide] | 93.9 µM | > 100 µM | 41.9 µM | 0.01 to 0.09 µM | 1 to 9 µM | > 100 µM |  |  |  | 
10 | Cn1cc(C(=O)C(=O)N2CC(F)(F)C2)cc1C(=O)Nc1ccc(F)c(F)c1 [Compound 32, 4-(2-(3,3-difluoroazetidin-1-yl)-2-oxoacetyl)-N-(3,4-difluorophenyl)-1-methyl-1H-pyrrole-2-carboxamide] | > 100 µM | > 100 µM | > 100 µM | 1 to 9 µM | 1 to 9 µM | > 100 µM |  |  |  | 
11 | Cn1cc(NS(=O)(=O)c2ccccc2)cc1C(=O)Nc1ccc(F)c(F)c1 [Compound 36, N-(3,4-difluorophenyl)-1-methyl-4-(phenylsulfonamido)-1H-pyrrole-2-carboxamide] | 43.5 µM | 36.7 µM | 22.9 µM | 0.1 to 0.9 µM | 1 to 9 µM | 13.9 µM |  |  |  | 
12 | Cc1c(C(=O)C(=O)NCc2c[nH]nn2)c(C)n(C)c1C(=O)Nc1ccc(F)c(F)c1 [Compound 38, 4-(2-(((1H-1,2,3-triazol-4-yl)methyl)amino)-2-oxoacetyl)-N-(3,4-difluorophenyl)-1,3,5-trimethyl-1H-pyrrole-2-carboxamide] | 85 µM | 29 µM | 45 µM | 0.001 to 0.009 µM | 0.1 to 0.9 µM | > 100 µM |  |  |  | 
13 | Cc1c(C(=O)C(=O)Nc2ccccn2)c(C)n(C)c1C(=O)Nc1ccc(F)c(F)c1 [Compound 43, N-(3,4-difluorophenyl)-1,3,5-trimethyl-4-(2-oxo-2-(pyridin-2-ylamino)acetyl)-1H-pyrrole-2-carboxamide] | > 100 µM | 50 µM | > 100 µM | 0.01 to 0.09 µM | 0.1 to 0.9 µM | > 100 µM |  |  |  | 
14 | Cc1c(C(=O)C(=O)N2CCN(C)CC2)c(C)n(C)c1C(=O)Nc1ccc(F)c(F)c1 [Compound 44, N-(3,4-difluorophenyl)-1,3,5-trimethyl-4-(2-(4-methylpiperazin-1-yl)-2-oxoacetyl)-1H-pyrrole-2-carboxamide] | 90 µM | 17 µM | > 100 µM | 0.1 to 0.9 µM | 1 to 9 µM | 92 µM |  |  |  | 
15 | CCN(CC)C(=O)C(=O)c1c(C)c(C(=O)Nc2ccc(F)c(F)c2)n(C)c1C [Compound 45, 4-(2-(diethylamino)-2-oxoacetyl)-N-(3,4-difluorophenyl)-1,3,5-trimethyl-1H-pyrrole-2-carboxamide] | 75 µM | 36 µM | 47 µM | 0.1 to 0.9 µM | 1 to 9 µM | 90 µM |  |  |  | 
16 | Cc1c(C(=O)C(=O)Nc2nc3ccccc3[nH]2)c(C)n(C)c1C(=O)Nc1ccc(F)c(F)c1 [Compound 46, 4-(2-((1H-benzo[d]imidazol-2-yl)amino)-2-oxoacetyl)-N-(3,4-difluorophenyl)-1,3,5-trimethyl-1H-pyrrole-2-carboxamide] | 7 µM | 38 µM | 10 µM | 0.1 to 0.9 µM | 1 to 9 µM | > 100 µM |  |  |  | 
17 | Cc1c(C(=O)C(=O)NCc2ccccn2)c(C)n(C)c1C(=O)Nc1ccc(F)c(F)c1 [Compound 47, N-(3,4-difluorophenyl)-1,3,5-trimethyl-4-(2-oxo-2-((pyridin-2-ylmethyl)amino)acetyl)-1H-pyrrole-2-carboxamide] | 35 µM | 47 µM | 51 µM | 0.01 to 0.09 µM | 0.1 to 0.9 µM | > 100 µM |  |  |  | 
18 | Cc1c(C(=O)C(=O)NCc2nccn2C)c(C)n(C)c1C(=O)Nc1ccc(F)c(F)c1 [Compound 48, N-(3,4-difluorophenyl)-1,3,5-trimethyl-4-(2-(((1-methyl-1H-imidazol-2-yl)methyl)amino)-2-oxoacetyl)-1H-pyrrole-2-carboxamide] | 84 µM | 27 µM | > 100 µM | 0.001 to 0.009 µM | 0.01 to 0.09 µM | > 100 µM |  |  |  | 
19 | Cc1c(C(=O)C(=O)Nc2ccccn2)c(C)n(C)c1C(=O)Nc1ccccc1 [Compound 52, 1,3,5-trimethyl-4-(2-oxo-2-(pyridin-2-ylamino)acetyl)-N-phenyl-1H-pyrrole-2-carboxamide] | > 100 µM | 50 µM | > 100 µM | 0.01 to 0.09 µM | 0.1 to 0.9 µM | > 100 µM |  |  |  | 
20 | C#CCNC(=O)C(=O)c1c(C)c(C(=O)Nc2ccc(OC(F)(F)F)cc2)n(C)c1C [Compound 54, 1,3,5-trimethyl-4-(2-oxo-2-(prop-2-yn-1-ylamino)acetyl)-N-(4-(trifluoromethoxy)phenyl)-1H-pyrrole-2-carboxamide] |  | 4 µM | 6 µM | 1 to 9 µM |  | 3 µM |  |  |  | 
21 | C#CCNC(=O)C(=O)c1c(C)c(C(=O)Nc2cccc(OC(F)(F)F)c2)n(C)c1C [Compound 55, 1,3,5-trimethyl-4-(2-oxo-2-(prop-2-yn-1-ylamino)acetyl)-N-(3-(trifluoromethoxy)phenyl)-1H-pyrrole-2-carboxamide] | 88 µM | 38 µM | 15 µM | 0.1 to 0.9 µM | 1 to 9 µM | > 100 µM |  |  |  | 
22 | C#CCNC(=O)C(=O)c1c(C)c(C(=O)NC(C)(C)c2ccc(F)c(F)c2)n(C)c1C [Compound 56, N-(2-(3,4-difluorophenyl)propan-2-yl)-1,3,5-trimethyl-4-(2-oxo-2-(prop-2-yn-1-ylamino)acetyl)-1H-pyrrole-2-carboxamide] | > 100 µM | > 100 µM | > 100 µM | 1 to 9 µM |  | > 100 µM |  |  |  | 
